According to patent US8182854B2, “Coffee drink composition” (Kao Corporation, priority 2004, dated 2012):
Entries after “also recorded” stand apart in the source; their conditions may differ.

Tested on: hydrogen peroxide in urine
Test: Amount of hydrogen peroxide in rat urine after forced p.o. administration (FOX assay)
Type: in vivo, SD rats
Protocol: (c) The coffees obtained above in (a) and (b) were each forcibly administered p.o. (10 mL/kg) to six-week-old male SD rats (n=4). Three hours after the administration, urine was collected and the amount of hydrogen peroxide in their urine was measured. The amount of hydrogen peroxide in urine was measured by FOX (ferrous ion oxidation-xylenol orange) assay. (b) To 7-week-old male SD rats (n=4), 2.4 g/kg of instant coffee (Nescafe decaffeinated) (1.6 mg/kg in terms of hydroxyhydroquinone) and 1.6 mg/kg of hydroxyhydroquinone were forcibly administered p.o, respectively. Prior to administration and three hours and six hours after administration, urine was collected from them and the amount of hydrogen peroxide in urine was measured as in Example 2. To seven-week-old male SD rats (n=3), hydroxyhydroquinone (0.1, 0.3, 1 and 3 mg/kg, respectively) was forcibly administered p.o. Prior to administration and three and six hours after administration, urine was collected from them and the amount of hydrogen peroxide in the urine was determined as in Example 2. (c) The coffees obtained above in (a) and (b) (each, 10 mL/kg) were forcibly administered p.o. to seven-week-old male SD rats (n=8). Prior to administration and three and six hours after the administration, urine was collected from them and the amount of hydrogen peroxide in the urine was measured as in Example 2.

- amount of hydrogen peroxide in urine (Example 3, FIG. 3, 7-week-old male SD rats, p.o., 2.4 g/kg instant coffee or 1.6 mg/kg hydroxyhydroquinone, three hours after administration): significant increase
- dose from which the amount of hydrogen peroxide in the body increases (Example 4, FIG. 4, seven-week-old male SD rats, p.o.): ≥ 0.3 mg/kg
SMILES: Oc1ccc(O)c(O)c1 [hydroxyhydroquinone]
- amount of hydrogen peroxide in the body (urine) (Example 4, FIG. 4, seven-week-old male SD rats, hydroxyhydroquinone 0.1, 0.3, 1 and 3 mg/kg p.o., urine three and six hours after administration): increases the generation amount of hydrogen peroxide in the body; also recorded: increases dose-dependently
